System: 885512-296-R-J2-PDC complex spheroid viability
Experiment: Anticancer human tumor 885512-296-R-J2-PDC patient-derived breast carcinoma cell line growth inhibition
Details: for IC50: curve of first compound; for viability, T/C: stronger effect = lower value
Procedure, shortened: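 Multicellular complex spheroids of tumor cells with human endothelial cells (HUVEC) and mesenchymal stem cells; the LSD1 inhibitor iadademstat was combined with standard-of-care or investigational agents. Top concentration at or near clinical Cmax, half-log dilutions; final DMSO ≤0.25%.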

[1] = second compound 0.1 µM, first compound 0.00316 µM
[2] = second compound 0.1 µM, first compound 0.01 µM
[3] = second compound 0.1 µM, first compound 0.0316 µM
[4] = second compound 0.1 µM, first compound 0.1 µM
[5] = second compound 0.316 µM, first compound 0.00316 µM
[6] = second compound 0.316 µM, first compound 0.01 µM
[7] = second compound 0.316 µM, first compound 0.0316 µM
[8] = second compound 0.316 µM, first compound 0.1 µM
[9] = second compound 1 µM, first compound 0.00316 µM
[10] = second compound 1 µM, first compound 0.01 µM
[11] = second compound 1 µM, first compound 0.0316 µM
[12] = second compound 1 µM, first compound 0.1 µM
[13] = second compound 3.16 µM, first compound 0.00316 µM
[14] = second compound 3.16 µM, first compound 0.01 µM
[15] = second compound 3.16 µM, first compound 0.0316 µM
[16] = second compound 3.16 µM, first compound 0.1 µM
[17] = second compound 10 µM, first compound 0.00316 µM
[18] = second compound 10 µM, first compound 0.01 µM
[19] = second compound 10 µM, first compound 0.0316 µM
[20] = second compound 10 µM, first compound 0.1 µM
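Further: spheroids exposed to agents for 7 days before viability read.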

COc1cc(Nc2ncc3c(n2)-c2ccc(Cl)cc2C(c2c(F)cccc2OC)=NC3)ccc1C(=O)O + NC1CCC(NC2CC2c2ccccc2)CC1
IC50 (second compound 0.1 µM): 8.96 nM
IC50 (second compound 0.316 µM): 7.35 nM
IC50 (second compound 1 µM): 7.37 nM
IC50 (second compound 3.16 µM): 9.53 nM
IC50 (second compound 10 µM): 5.12 nM
viability, T/C [1]: 78.8%
viability, T/C [2]: 42.8%
viability, T/C [3]: 33.2%
viability, T/C [4]: 24%
viability, T/C (second compound 0.1 µM, first compound 0.316 µM): 12.3%
viability, T/C (second compound 0.1 µM, first compound 1 µM): 13.2%
viability, T/C [5]: 90.6%
viability, T/C [6]: 31.3%
viability, T/C [7]: 34.2%
viability, T/C [8]: 39.1%
viability, T/C (second compound 0.316 µM, first compound 0.316 µM): 14.5%
viability, T/C (second compound 0.316 µM, first compound 1 µM): 11.5%
viability, T/C [9]: 90.9%
viability, T/C [10]: 29.4%
viability, T/C [11]: 37.3%
viability, T/C [12]: 22.1%
viability, T/C (second compound 1 µM, first compound 0.316 µM): 17.5%
viability, T/C (second compound 1 µM, first compound 1 µM): 13.2%
viability, T/C [13]: 87.4%
viability, T/C [14]: 42.1%
viability, T/C [15]: 33.7%
viability, T/C [16]: 38.1%
viability, T/C (second compound 3.16 µM, first compound 0.316 µM): 14.6%
viability, T/C (second compound 3.16 µM, first compound 1 µM): 16.6%
viability, T/C [17]: 70.5%
viability, T/C [18]: 21.4%
viability, T/C [19]: 29.7%
viability, T/C [20]: 22.7%
viability, T/C (second compound 10 µM, first compound 0.316 µM): 17.1%
viability, T/C (second compound 10 µM, first compound 1 µM): 15.3%

Cn1ncnc1C1c2n[nH]c(=O)c3cc(F)cc(c23)NC1c1ccc(F)cc1 (stereo not given) + NC1CCC(NC2CC2c2ccccc2)CC1
IC50 (second compound 0.1 µM): 16 nM
IC50 (second compound 0.316 µM): 25 nM
IC50 (second compound 1 µM): 27.6 nM
IC50 (second compound 3.16 µM): 27.3 nM
IC50 (second compound 10 µM): 14.2 nM
viability, T/C (second compound 0.1 µM, first compound 0.000316 µM): 140%
viability, T/C (second compound 0.1 µM, first compound 0.001 µM): 105%
viability, T/C [1]: 77.6%
viability, T/C [2]: 67.2%
viability, T/C [3]: 37.7%
viability, T/C [4]: 10.2%
viability, T/C (second compound 0.316 µM, first compound 0.000316 µM): 122%
viability, T/C (second compound 0.316 µM, first compound 0.001 µM): 113%
viability, T/C [5]: 81.6%
viability, T/C [6]: 79%
viability, T/C [7]: 44%
viability, T/C [8]: 13.3%
viability, T/C (second compound 1 µM, first compound 0.000316 µM): 108%
viability, T/C (second compound 1 µM, first compound 0.001 µM): 105%
viability, T/C [9]: 89.6%
viability, T/C [10]: 76.7%
viability, T/C [11]: 44.6%
viability, T/C [12]: 28.5%
viability, T/C (second compound 3.16 µM, first compound 0.000316 µM): 106%
viability, T/C (second compound 3.16 µM, first compound 0.001 µM): 104%
viability, T/C [13]: 86.1%
viability, T/C [14]: 75.2%
viability, T/C [15]: 44.5%
viability, T/C [16]: 28.6%
viability, T/C (second compound 10 µM, first compound 0.000316 µM): 92%
viability, T/C (second compound 10 µM, first compound 0.001 µM): 85%
viability, T/C [17]: 72%
viability, T/C [18]: 56.8%
viability, T/C [19]: 36%
viability, T/C [20]: 18.6%

NS(=O)(=O)OCC1CC(n2ccc3c(NC4CCc5ccccc54)ncnc32)CC1O (stereo not given) + NC1CCC(NC2CC2c2ccccc2)CC1
IC50 (second compound 0.1 µM): < 9.49 nM
IC50 (second compound 0.316 µM): < 9.49 nM
IC50 (second compound 1 µM): < 9.49 nM
IC50 (second compound 3.16 µM): < 9.49 nM
IC50 (second compound 10 µM): < 9.49 nM
viability, T/C (second compound 0.1 µM, first compound 0.00949 µM): 16.7%
viability, T/C (second compound 0.1 µM, first compound 0.03 µM): 7.98%
viability, T/C (second compound 0.1 µM, first compound 0.0949 µM): 5.83%
viability, T/C (second compound 0.1 µM, first compound 0.3 µM): 2.1%
viability, T/C (second compound 0.1 µM, first compound 0.949 µM): 8.58%
viability, T/C (second compound 0.1 µM, first compound 3 µM): 9.25%
viability, T/C (second compound 0.316 µM, first compound 0.00949 µM): 12.9%
viability, T/C (second compound 0.316 µM, first compound 0.03 µM): 8.7%
viability, T/C (second compound 0.316 µM, first compound 0.0949 µM): 7.27%
viability, T/C (second compound 0.316 µM, first compound 0.3 µM): 5.01%
viability, T/C (second compound 0.316 µM, first compound 0.949 µM): 6.94%
viability, T/C (second compound 0.316 µM, first compound 3 µM): 6.92%
viability, T/C (second compound 1 µM, first compound 0.00949 µM): 16.3%
viability, T/C (second compound 1 µM, first compound 0.03 µM): 8.77%
viability, T/C (second compound 1 µM, first compound 0.0949 µM): 4.53%
viability, T/C (second compound 1 µM, first compound 0.3 µM): 4.31%
viability, T/C (second compound 1 µM, first compound 0.949 µM): 1.23%
viability, T/C (second compound 1 µM, first compound 3 µM): 6.71%
viability, T/C (second compound 3.16 µM, first compound 0.00949 µM): 14.2%
viability, T/C (second compound 3.16 µM, first compound 0.03 µM): 8.91%
viability, T/C (second compound 3.16 µM, first compound 0.0949 µM): 3.64%
viability, T/C (second compound 3.16 µM, first compound 0.3 µM): 1.52%
viability, T/C (second compound 3.16 µM, first compound 0.949 µM): 4.11%
viability, T/C (second compound 3.16 µM, first compound 3 µM): 3.57%
viability, T/C (second compound 10 µM, first compound 0.00949 µM): 10.2%
viability, T/C (second compound 10 µM, first compound 0.03 µM): 5.83%
viability, T/C (second compound 10 µM, first compound 0.0949 µM): 2.78%
viability, T/C (second compound 10 µM, first compound 0.3 µM): 1.64%
viability, T/C (second compound 10 µM, first compound 0.949 µM): 1.08%
viability, T/C (second compound 10 µM, first compound 3 µM): 0.82%
